Test results from ChEMBL document CHEMBL1201862, “PubChem BioAssay data set” (2004).
Active and inactive are the calls of the source.

Legend:
[1] = target: T1, Mannose-6-phosphate isomerase (Homo sapiens, UniProt P34949); assay: PMI enzyme inhibitors, confirmation, biochemical, fluorescence intensity (AID 1535)
T1 sequence (P34949 whole entry): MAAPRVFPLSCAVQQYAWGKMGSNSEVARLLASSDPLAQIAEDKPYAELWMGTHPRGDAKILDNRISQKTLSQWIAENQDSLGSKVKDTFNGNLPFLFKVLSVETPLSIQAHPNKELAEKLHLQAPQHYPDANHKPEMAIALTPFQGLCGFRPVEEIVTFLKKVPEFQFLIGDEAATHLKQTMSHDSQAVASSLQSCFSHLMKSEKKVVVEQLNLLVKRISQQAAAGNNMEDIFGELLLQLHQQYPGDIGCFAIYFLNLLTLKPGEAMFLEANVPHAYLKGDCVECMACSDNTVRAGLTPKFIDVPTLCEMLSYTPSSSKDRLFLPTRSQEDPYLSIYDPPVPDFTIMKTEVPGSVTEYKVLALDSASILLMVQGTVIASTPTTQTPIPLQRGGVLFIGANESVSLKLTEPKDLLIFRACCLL

Phosphomannomutase 2 = Phosphomannomutase 2 (Homo sapiens, UniProt O15305); assay: Counter screen SAR assay for PMM2 inhibitors via a fluorescence intensity assay. [Related pubchem assays (depositor defined):AID1545, AID1574]
[2] = target: Potassium voltage-gated channel subfamily KQT member 2 (Rattus norvegicus, UniProt O88943); assay: KCNQ2 channel activators, analog series, SAR follow-up, automated patch clamp, KCNQ2-CHO cells (AID 493113); assay type: functional
HEK293 = assay: cells; conditions: Homo sapiens;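 further: cells exposed to compound for 14 hours overnight before viability readout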
Tumor necrosis factor = Tumor necrosis factor (Homo sapiens, UniProt P01375); assay: TNFa-triggered NF-kB activation inhibitors, SAR follow-up, cell-based, revised (AID 2337); assay type: functional
[3] = target: T2, Nucleotide-binding oligomerization domain-containing protein 1 (Homo sapiens, UniProt Q9Y239); assay: NOD1 signaling inhibitors, SAR follow-up, revised (AID 2333); assay type: functional
T2 sequence (Q9Y239 whole entry): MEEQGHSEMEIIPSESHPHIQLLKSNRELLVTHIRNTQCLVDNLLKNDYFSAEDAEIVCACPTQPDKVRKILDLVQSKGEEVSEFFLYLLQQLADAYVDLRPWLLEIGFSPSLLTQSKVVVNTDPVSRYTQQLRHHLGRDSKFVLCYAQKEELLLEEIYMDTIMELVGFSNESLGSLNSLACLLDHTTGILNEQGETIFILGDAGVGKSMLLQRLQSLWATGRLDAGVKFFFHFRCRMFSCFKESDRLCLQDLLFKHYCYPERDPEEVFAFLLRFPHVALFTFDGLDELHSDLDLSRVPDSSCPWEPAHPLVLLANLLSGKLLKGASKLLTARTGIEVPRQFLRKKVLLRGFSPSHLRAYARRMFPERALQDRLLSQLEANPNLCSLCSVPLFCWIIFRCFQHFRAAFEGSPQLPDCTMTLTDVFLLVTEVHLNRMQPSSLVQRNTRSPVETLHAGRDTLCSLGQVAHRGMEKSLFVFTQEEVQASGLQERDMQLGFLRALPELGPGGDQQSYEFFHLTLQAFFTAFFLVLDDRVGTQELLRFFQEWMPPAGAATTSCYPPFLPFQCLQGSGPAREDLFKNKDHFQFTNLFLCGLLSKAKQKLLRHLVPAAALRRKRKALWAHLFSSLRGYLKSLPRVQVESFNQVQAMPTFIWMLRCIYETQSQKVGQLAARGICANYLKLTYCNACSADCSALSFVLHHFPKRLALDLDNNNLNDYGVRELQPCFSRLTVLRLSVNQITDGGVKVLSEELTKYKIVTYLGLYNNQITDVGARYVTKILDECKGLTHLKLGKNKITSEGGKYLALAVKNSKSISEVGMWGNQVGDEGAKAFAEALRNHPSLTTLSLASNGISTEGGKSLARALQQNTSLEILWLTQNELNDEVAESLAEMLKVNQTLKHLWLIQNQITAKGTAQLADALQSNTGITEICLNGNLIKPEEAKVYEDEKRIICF

[4] = target: T3, Dual specificity protein phosphatase 6 (Rattus norvegicus, UniProt Q64346); assay: MKP-3 phosphatase inhibitors, primary screen, biochemical, rat enzyme, in vitro (AID 425)
T3 sequence (Q64346 whole entry): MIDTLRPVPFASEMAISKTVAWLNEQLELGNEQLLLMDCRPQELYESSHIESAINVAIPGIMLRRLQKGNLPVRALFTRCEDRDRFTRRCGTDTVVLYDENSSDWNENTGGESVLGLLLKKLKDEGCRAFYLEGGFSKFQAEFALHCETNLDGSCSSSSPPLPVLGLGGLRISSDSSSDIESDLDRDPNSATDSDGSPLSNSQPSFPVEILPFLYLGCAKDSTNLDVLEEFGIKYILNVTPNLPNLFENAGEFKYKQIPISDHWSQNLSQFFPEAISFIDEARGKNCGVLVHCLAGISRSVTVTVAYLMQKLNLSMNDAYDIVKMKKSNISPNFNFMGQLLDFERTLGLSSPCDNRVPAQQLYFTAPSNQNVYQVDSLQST

[5] = target: E3 ubiquitin-protein ligase XIAP (Homo sapiens, UniProt P98170); assay: Counter Screen using XIAP-Bir3 for Chemical Antagonists of Bir1/2 domains of IAP-family anti-apoptotic proteins. [Related pubchem assays (depositor defined):AID1018, AID1449, AID1514, AID1638, AID1749, AID1750, AID488957, AID488963]
[6] = target: T4, Voltage-gated N-type calcium channel alpha-1B subunit/Amyloid beta A4 precursor protein-binding family A member 1 (Homo sapiens, UniProt Q00975+Q02410); assay type: protein assay
T4 sequence (Q00975 whole entry): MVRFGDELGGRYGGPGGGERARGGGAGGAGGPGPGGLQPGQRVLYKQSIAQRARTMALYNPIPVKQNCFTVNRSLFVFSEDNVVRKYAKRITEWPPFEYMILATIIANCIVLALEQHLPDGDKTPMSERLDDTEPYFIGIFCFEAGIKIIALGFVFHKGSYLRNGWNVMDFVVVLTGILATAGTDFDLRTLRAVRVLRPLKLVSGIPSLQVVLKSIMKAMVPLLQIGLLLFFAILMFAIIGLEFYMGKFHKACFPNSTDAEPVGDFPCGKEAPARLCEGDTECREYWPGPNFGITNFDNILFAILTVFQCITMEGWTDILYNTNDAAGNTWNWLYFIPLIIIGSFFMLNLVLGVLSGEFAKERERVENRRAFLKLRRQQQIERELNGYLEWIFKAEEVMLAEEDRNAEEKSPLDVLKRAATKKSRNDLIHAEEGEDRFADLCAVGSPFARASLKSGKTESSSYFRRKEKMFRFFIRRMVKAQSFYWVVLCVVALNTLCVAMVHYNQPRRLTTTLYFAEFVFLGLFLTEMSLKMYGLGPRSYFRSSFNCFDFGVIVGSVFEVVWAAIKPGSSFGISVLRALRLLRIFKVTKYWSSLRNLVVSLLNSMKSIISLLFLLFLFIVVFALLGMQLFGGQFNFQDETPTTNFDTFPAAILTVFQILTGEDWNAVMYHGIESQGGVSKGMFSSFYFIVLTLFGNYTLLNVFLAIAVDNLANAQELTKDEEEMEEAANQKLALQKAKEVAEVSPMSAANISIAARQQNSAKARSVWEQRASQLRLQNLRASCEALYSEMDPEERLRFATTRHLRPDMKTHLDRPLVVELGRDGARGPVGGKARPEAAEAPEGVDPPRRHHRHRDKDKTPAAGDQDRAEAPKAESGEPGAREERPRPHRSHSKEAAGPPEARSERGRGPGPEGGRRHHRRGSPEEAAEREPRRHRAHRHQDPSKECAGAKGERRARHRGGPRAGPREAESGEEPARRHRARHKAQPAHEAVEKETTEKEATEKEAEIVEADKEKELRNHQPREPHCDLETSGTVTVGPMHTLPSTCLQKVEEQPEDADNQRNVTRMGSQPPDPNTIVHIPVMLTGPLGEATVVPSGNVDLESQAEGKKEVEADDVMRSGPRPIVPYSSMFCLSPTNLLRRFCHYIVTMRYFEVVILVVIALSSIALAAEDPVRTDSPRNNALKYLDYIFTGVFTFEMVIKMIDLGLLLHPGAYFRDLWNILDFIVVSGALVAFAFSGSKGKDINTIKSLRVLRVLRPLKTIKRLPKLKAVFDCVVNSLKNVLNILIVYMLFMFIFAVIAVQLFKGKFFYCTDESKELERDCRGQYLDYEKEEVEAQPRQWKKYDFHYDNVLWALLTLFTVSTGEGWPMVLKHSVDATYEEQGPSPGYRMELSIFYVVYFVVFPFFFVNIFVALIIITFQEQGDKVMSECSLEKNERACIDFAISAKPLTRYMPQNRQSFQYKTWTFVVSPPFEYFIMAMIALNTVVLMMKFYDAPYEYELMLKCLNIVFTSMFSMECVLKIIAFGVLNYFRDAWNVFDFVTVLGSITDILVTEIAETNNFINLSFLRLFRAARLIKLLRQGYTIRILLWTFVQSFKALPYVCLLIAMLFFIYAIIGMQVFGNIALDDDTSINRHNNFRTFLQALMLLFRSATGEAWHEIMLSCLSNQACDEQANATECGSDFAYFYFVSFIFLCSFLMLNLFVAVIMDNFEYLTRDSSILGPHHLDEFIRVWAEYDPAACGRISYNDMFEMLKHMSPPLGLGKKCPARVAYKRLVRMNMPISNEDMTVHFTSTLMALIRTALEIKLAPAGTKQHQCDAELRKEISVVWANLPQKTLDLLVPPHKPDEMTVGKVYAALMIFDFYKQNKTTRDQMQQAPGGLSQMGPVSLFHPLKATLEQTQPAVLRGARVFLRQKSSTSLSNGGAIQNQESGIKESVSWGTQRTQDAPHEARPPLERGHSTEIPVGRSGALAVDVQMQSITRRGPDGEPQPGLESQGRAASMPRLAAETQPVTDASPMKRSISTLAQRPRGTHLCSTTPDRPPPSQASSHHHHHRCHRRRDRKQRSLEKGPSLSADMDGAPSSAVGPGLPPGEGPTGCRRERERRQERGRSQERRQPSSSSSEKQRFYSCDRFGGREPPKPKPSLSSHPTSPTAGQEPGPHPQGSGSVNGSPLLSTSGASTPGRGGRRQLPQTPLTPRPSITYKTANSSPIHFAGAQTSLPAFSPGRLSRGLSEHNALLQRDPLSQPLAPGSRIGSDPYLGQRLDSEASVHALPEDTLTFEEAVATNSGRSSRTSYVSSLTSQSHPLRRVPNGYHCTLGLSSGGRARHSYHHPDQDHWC
T4 sequence (Q02410 whole entry): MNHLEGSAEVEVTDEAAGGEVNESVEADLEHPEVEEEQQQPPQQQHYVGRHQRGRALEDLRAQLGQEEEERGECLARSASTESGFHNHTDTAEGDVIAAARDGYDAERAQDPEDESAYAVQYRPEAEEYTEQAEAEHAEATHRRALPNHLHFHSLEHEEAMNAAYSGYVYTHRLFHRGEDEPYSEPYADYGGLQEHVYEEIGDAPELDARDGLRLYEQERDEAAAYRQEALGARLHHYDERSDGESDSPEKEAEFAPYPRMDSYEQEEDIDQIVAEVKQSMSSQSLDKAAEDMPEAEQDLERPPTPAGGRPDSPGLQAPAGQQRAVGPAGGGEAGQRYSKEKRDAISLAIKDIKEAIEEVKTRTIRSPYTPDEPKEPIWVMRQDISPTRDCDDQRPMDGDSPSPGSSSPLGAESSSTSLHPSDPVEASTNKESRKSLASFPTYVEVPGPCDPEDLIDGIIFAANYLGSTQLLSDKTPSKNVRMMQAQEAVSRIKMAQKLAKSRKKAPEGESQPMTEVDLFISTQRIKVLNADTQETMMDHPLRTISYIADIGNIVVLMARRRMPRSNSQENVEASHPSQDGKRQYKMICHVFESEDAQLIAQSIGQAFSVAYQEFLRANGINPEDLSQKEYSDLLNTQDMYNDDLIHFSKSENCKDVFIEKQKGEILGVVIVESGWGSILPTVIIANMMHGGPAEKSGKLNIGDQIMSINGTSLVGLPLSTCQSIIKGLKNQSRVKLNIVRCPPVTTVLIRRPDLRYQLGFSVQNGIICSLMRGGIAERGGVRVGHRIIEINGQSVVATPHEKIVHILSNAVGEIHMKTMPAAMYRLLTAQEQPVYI

[7] = target: T5, Dual specificity protein phosphatase 3 (Homo sapiens, UniProt P51452); assay: VHR1 phosphatase inhibitors, primary screen, biochemical, absorbance, uHTS (AID 1654)
T5 sequence (P51452 whole entry): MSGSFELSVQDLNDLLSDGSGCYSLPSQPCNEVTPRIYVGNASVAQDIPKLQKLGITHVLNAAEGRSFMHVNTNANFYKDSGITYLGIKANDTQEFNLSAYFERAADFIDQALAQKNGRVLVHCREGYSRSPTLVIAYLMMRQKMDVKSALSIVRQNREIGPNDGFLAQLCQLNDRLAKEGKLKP

[8] = target: T4, Voltage-gated N-type calcium channel alpha-1B subunit/Amyloid beta A4 precursor protein-binding family A member 1; assay type: protein assay; remark: listed apart in the source
[9] = target: T5, Dual specificity protein phosphatase 3; assay: VHR1 phosphatase inhibitors, biochemical (AID 1878)
CAAX prenyl protease 1 = CAAX prenyl protease 1 (Saccharomyces cerevisiae S288c, UniProt P47154); assay: Ste24 protease inhibitors, dose response, biochemical, S. cerevisiae, plate reader, cherry-pick (AID 488815)
CAAX prenyl protease 2 = CAAX prenyl protease 2 (Saccharomyces cerevisiae S288c, UniProt Q03530); assay type: biochemical
[10] = growth induction of Burl-1 ts yeast mutant, dose response, counter-screen for SUMOylation pathway inhibitor project, whole organism, S. cerevisiae, luminescence (AID 463199); assay type: functional
[11] = target: T6, Delta-type opioid receptor (Homo sapiens, UniProt P41143); assay: HTS Image-Based Screen for Agonists of the DOR Receptor. [Related pubchem assays (depositor defined):AID1777, AID1786, AID2133]; assay type: functional
T6 sequence (P41143 whole entry): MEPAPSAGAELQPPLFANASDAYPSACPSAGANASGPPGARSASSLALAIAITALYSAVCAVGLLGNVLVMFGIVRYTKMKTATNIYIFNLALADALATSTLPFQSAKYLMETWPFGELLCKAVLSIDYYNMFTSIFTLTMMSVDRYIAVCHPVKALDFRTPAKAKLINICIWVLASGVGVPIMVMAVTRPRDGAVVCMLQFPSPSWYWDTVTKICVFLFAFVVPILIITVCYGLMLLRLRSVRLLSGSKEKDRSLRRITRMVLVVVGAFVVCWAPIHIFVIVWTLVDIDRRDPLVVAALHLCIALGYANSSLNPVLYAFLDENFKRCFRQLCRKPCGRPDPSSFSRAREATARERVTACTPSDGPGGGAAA

[12] = target: T7, Kappa-type opioid receptor (Homo sapiens, UniProt P41145); assay: SAR analysis of small molecule agonists of the kappa opioid receptor via a luminescent beta-arrestin assay. [Related pubchem assays (depositor defined):AID1777, AID1786, AID1966, AID2133, AID2136, AID2348, AID2352, AID2357, AID2359, AID2370, AID2420, AID2478, AID2491, AID2492, AID2493, AID2497, AID2498, AID2500, AID449737, AID488822, AID488842]; assay type: functional
T7 sequence (P41145 whole entry): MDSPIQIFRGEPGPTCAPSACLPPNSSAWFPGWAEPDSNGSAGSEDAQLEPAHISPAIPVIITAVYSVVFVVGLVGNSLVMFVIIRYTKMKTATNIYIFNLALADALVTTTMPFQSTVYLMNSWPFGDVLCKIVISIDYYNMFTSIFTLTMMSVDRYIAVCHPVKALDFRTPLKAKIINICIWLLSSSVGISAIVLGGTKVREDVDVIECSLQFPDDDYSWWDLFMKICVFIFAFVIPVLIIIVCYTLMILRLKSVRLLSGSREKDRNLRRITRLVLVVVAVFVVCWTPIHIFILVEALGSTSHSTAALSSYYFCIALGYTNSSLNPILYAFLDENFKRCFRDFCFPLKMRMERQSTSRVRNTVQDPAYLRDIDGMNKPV

[13] = target: Voltage-dependent T-type calcium channel subunit alpha-1H (Homo sapiens, UniProt O95180); assay type: functional;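 further: channel activity triggered by adding a high calcium stimulation buffer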
[14] = target: T6, Delta-type opioid receptor; assay: DOR antagonists, SAR follow-up, image-based (AID 2357); assay type: functional
Mu-type opioid receptor [15] = target: T8, Mu-type opioid receptor (Homo sapiens, UniProt P35372); assay: HTS Image-Based Screen for Agonists of the MOR Receptor. [Related pubchem assays (depositor defined):AID1777, AID1785, AID1786, AID2133]; assay type: functional
T8 sequence (P35372 whole entry): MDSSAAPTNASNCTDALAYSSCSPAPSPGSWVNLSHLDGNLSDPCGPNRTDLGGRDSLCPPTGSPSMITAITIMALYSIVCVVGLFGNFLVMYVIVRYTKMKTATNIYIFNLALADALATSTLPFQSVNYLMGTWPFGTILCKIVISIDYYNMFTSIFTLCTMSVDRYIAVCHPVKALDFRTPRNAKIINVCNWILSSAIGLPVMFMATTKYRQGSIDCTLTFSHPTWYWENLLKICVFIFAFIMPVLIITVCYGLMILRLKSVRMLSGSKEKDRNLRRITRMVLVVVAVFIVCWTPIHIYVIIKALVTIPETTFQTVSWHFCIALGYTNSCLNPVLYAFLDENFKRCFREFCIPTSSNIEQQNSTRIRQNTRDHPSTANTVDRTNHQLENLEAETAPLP

[16] = target: T7, Kappa-type opioid receptor; assay type: functional
[17] = target: T7, Kappa-type opioid receptor; assay: KOR agonist analogs, imaging readout, SAR follow-up, image-based (AID 2359); assay type: functional
Mu-type opioid receptor [18] = target: T8, Mu-type opioid receptor; assay: MOR antagonists, SAR follow-up, image-based (AID 2420); assay type: functional;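 further: compounds added before stimulation of receptor with agonist DAMGO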
[19] = target: T7, Kappa-type opioid receptor; assay: KOR antagonists by imaging, SAR follow-up, image-based (AID 2348); assay type: functional
[20] = target: T6, Delta-type opioid receptor; assay: HTS Image-Based Screen for Antagonists of the DOR Receptor. [Related pubchem assays (depositor defined):AID1777, AID1785, AID1786, AID2133]; assay type: functional
Mu-type opioid receptor [21] = target: T8, Mu-type opioid receptor; assay: MOR agonists by imaging, SAR follow-up, image-based (AID 2352); assay type: functional
[22] = target: T7, Kappa-type opioid receptor; assay type: functional; remark: listed apart in the source
[23] = target: T6, Delta-type opioid receptor; assay: DOR agonists, SAR follow-up, image-based (AID 2370); assay type: functional
[24] = target: Intestinal-type alkaline phosphatase (Mus musculus, UniProt P24822); assay: PubChem AID 488785; assay type: functional
Chain of Intestinal-type alkaline phosphatase (Mus musculus, UniProt P24822) (P24822 whole entry): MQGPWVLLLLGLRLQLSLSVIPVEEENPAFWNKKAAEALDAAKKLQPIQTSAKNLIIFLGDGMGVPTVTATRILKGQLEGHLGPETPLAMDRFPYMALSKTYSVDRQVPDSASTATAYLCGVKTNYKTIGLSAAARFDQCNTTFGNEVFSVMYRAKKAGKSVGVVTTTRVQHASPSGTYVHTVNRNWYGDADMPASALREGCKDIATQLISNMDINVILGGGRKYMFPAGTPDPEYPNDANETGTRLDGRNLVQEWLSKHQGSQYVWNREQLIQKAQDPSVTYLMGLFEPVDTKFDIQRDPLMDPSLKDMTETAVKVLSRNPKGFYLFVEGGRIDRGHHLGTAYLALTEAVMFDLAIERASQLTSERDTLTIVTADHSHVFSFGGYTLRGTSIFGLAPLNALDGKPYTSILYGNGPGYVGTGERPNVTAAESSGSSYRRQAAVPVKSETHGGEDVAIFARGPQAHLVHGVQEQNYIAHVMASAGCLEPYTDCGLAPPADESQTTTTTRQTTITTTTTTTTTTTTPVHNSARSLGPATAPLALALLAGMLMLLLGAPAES

[25] = target: T9, Alkaline phosphatase, tissue-nonspecific isozyme (Homo sapiens, UniProt P05186); assay: TNAP enzyme inhibition by screening hits, dose response, selectivity assay for mouse IAP inhibitor project, biochemical, human TNAP, uHTS hits (AID 488906); assay type: functional
T9 sequence (P05186 whole entry): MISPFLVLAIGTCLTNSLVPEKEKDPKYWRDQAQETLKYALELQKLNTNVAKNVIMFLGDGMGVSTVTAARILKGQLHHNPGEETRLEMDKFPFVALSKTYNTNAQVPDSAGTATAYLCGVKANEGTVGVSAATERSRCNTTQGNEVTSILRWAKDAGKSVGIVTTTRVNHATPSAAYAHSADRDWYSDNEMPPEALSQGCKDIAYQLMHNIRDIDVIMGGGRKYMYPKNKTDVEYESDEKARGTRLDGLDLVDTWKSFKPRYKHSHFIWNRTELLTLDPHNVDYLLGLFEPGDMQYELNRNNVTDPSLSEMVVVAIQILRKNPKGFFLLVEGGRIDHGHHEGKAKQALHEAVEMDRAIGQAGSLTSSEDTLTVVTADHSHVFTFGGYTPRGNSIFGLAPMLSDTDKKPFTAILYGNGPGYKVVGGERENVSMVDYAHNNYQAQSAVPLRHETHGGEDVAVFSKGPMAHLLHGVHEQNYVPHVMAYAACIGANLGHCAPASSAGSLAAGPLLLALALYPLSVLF

[26] = target: Intestinal-type alkaline phosphatase (Homo sapiens, UniProt P09923); assay: inhibition of human intestinal alkaline phosphatase – biochemical, dose response (AID 488876); assay type: functional

FC(F)(F)Oc1cccc(/N=c2\ssnc2Cl)c1
IC50 [1]: 27.5 µM (active)
IC50 (Phosphomannomutase 2): > 100 µM (inactive)

Cc1cc(C)c(NC(=O)CCc2ccccc2)c(C)c1
EC50 [2]: 1.6 µM (active)

Cc1ccc([N+](=O)[O-])cc1NC(=O)c1cc(Cl)c2ccccc2c1O
IC50 (HEK293): 1.17 µM (active)
IC50 (Tumor necrosis factor): 0.206 µM (active)
IC50 [3]: 0.17 µM (active)

CCOC(=O)C1=C(C)N=c2s/c(=C\c3ccc(OCC(=O)O)cc3)c(=O)n2C1c1ccc(Cl)cc1 (stereo unspecified)
IC50 [4]: > 158 µM (not active)
IC50 [5]: > 20 µM (inactive)
IC50 [6]: 33.7 µM (active)
IC50 [7]: 11.3 µM (active)
IC50 [8]: > 50 µM (inactive)
IC50 [9]: 8.8 µM (active)

CCOc1cccc(-c2c(C(=O)N/N=C/c3c(F)cccc3Cl)nnn2-c2nonc2N)c1
AC50 (CAAX prenyl protease 1): > 100 µM (inactive)
AC50 (CAAX prenyl protease 2): 9 µM (active)

COc1ccc(Cl)cc1N(C(=O)c1ccco1)C(C(=O)NC1CCCC1)c1ccncc1 (stereo unspecified)
AC50 [10]: 104 µM (active)

COc1cc(Cl)c(C)cc1NC(=O)CSc1nnc(-c2ccccn2)n1Cc1ccco1
EC50 [11]: > 32 µM (inactive)
EC50 [12]: > 10 µM (inactive)
EC50 [13]: 7.53 µM (active)
IC50 [14]: > 32 µM (inactive)
EC50 (Mu-type opioid receptor [15]): > 32 µM (inactive)
EC50 [16]: 11.9 µM
EC50 [17]: 16.3 µM (inactive)
IC50 (Mu-type opioid receptor [18]): > 32 µM (inactive)
IC50 [19]: > 32 µM (inactive)
IC50 [20]: > 32 µM (inactive)
EC50 (Mu-type opioid receptor [21]): > 32 µM (inactive)
EC50 [22]: 20.3 µM
EC50 [23]: > 32 µM (inactive)

Cc1cc(Cn2nc(-c3ccccc3)cc2C(=O)NCc2cccc(C(F)(F)F)c2)on1
IC50 [24]: 3.4 µM (active)
IC50 [25]: 31 µM (active)
IC50 [26]: > 100 µM (inactive)
